Measurements taken from article PMC9901178 (bioRxiv, 2023).

Legend:
[1] = system: HEK293/GC-A^+/AT1^+ cells; experiment: Intracellular cGMP generation in HEK293/GC-A+/AT1+ cells; type: cell-based, human; settings: ANP 10^−8 M, ANGII 10^−8 M
PKC = PKC activity by western blot of phosphorylated pan-PKC substrates; type: cell-based, human; settings: Go6983 5 μM, HEK293/GC-A^+/AT1^+ cells

SMILES	Rescue of the suppression effect of ANGII on ANP-induced cGMP ([1]; Go6983 5 μM)	PKC activity, phosphorylated status of pan-PKC substrates (PKC)	Rescue of the suppression effect of ANGII on ANP-induced cGMP ([1]; valsartan 1 μM)
COc1ccc2c(c1)c(C1=C(c3c[nH]c4ccccc34)C(=O)NC1=O)cn2CCCN(C)C [Go6983]	significantly rescued	effectively inhibited PKC activity	
CCCCC(=O)N(Cc1ccc(-c2ccccc2-c2nnn[nH]2)cc1)[C@H](C(=O)O)C(C)C [valsartan]			significantly rescued
